Assay results: the CheMixHub viscosity set
± gives the uncertainty stated by the source.

Experiment: xn = mol fraction of the nth substance listed
Conditions: 101 kPa

## CCCCCO + CCCCCC
298.15 K, x1 = 0.0122
  viscosity: 0.302 ± 0.004 mPa·s
298.15 K, x1 = 0.0218
  viscosity: 0.305 ± 0.004 mPa·s
298.15 K, x1 = 0.0272
  viscosity: 0.307 ± 0.004 mPa·s
298.15 K, x1 = 0.0424
  viscosity: 0.312 ± 0.004 mPa·s
298.15 K, x1 = 0.0642
  viscosity: 0.321 ± 0.004 mPa·s
298.15 K, x1 = 0.0706
  viscosity: 0.324 ± 0.004 mPa·s
298.15 K, x1 = 0.0889
  viscosity: 0.333 ± 0.004 mPa·s
298.15 K, x1 = 0.0978
  viscosity: 0.337 ± 0.004 mPa·s
298.15 K, x1 = 0.124
  viscosity: 0.35 ± 0.004 mPa·s
298.15 K, x1 = 0.1377
  viscosity: 0.357 ± 0.004 mPa·s
298.15 K, x1 = 0.1474
  viscosity: 0.362 ± 0.004 mPa·s
298.15 K, x1 = 0.1677
  viscosity: 0.371 ± 0.004 mPa·s
298.15 K, x1 = 0.1838
  viscosity: 0.382 ± 0.004 mPa·s
298.15 K, x1 = 0.1966
  viscosity: 0.39 ± 0.004 mPa·s
298.15 K, x1 = 0.2033
  viscosity: 0.395 ± 0.004 mPa·s
298.15 K, x1 = 0.2353
  viscosity: 0.423 ± 0.005 mPa·s
298.15 K, x1 = 0.3342
  viscosity: 0.518 ± 0.005 mPa·s
298.15 K, x1 = 0.4494
  viscosity: 0.677 ± 0.007 mPa·s
298.15 K, x1 = 0.5434
  viscosity: 0.874 ± 0.009 mPa·s
298.15 K, x1 = 0.6407
  viscosity: 1.19 ± 0.011 mPa·s
298.15 K, x1 = 0.7344
  viscosity: 1.555 ± 0.015 mPa·s
298.15 K, x1 = 0.8437
  viscosity: 2.164 ± 0.02 mPa·s
298.15 K, x1 = 0.9129
  viscosity: 2.715 ± 0.025 mPa·s
313.15 K, x1 = 0.1677
  viscosity: 0.318 ± 0.004 mPa·s
313.15 K, x1 = 0.2353
  viscosity: 0.356 ± 0.004 mPa·s
313.15 K, x1 = 0.3342
  viscosity: 0.427 ± 0.005 mPa·s
313.15 K, x1 = 0.4494
  viscosity: 0.545 ± 0.006 mPa·s
313.15 K, x1 = 0.5434
  viscosity: 0.668 ± 0.007 mPa·s
313.15 K, x1 = 0.6407
  viscosity: 0.893 ± 0.009 mPa·s
313.15 K, x1 = 0.7344
  viscosity: 1.134 ± 0.011 mPa·s
313.15 K, x1 = 0.8437
  viscosity: 1.5 ± 0.014 mPa·s
313.15 K, x1 = 0.9129
  viscosity: 1.843 ± 0.017 mPa·s

## O=[N+]([O-])c1ccccc1 + OCCOCCOCCO
298.15 K, x2 = 0.0465
  viscosity: 2.086 ± 0.098 mPa·s
298.15 K, x2 = 0.1495
  viscosity: 2.91 ± 0.13 mPa·s
298.15 K, x2 = 0.2501
  viscosity: 3.999 ± 0.18 mPa·s
298.15 K, x2 = 0.3505
  viscosity: 5.455 ± 0.23 mPa·s
298.15 K, x2 = 0.4432
  viscosity: 7.222 ± 0.29 mPa·s
298.15 K, x2 = 0.4957
  viscosity: 8.443 ± 0.33 mPa·s
298.15 K, x2 = 0.5486
  viscosity: 9.864 ± 0.37 mPa·s
298.15 K, x2 = 0.6486
  viscosity: 13.17 ± 0.47 mPa·s
298.15 K, x2 = 0.7501
  viscosity: 17.53 ± 0.61 mPa·s
298.15 K, x2 = 0.8489
  viscosity: 23 ± 0.78 mPa·s
298.15 K, x2 = 0.94
  viscosity: 29.37 ± 0.98 mPa·s
308.15 K, x2 = 0.0465
  viscosity: 1.759 ± 0.083 mPa·s
308.15 K, x2 = 0.1495
  viscosity: 2.342 ± 0.11 mPa·s
308.15 K, x2 = 0.2501
  viscosity: 3.087 ± 0.14 mPa·s
308.15 K, x2 = 0.3505
  viscosity: 4.049 ± 0.18 mPa·s
308.15 K, x2 = 0.4432
  viscosity: 5.184 ± 0.23 mPa·s
308.15 K, x2 = 0.4957
  viscosity: 5.954 ± 0.25 mPa·s
308.15 K, x2 = 0.5486
  viscosity: 6.838 ± 0.28 mPa·s
308.15 K, x2 = 0.6486
  viscosity: 8.857 ± 0.34 mPa·s
308.15 K, x2 = 0.7501
  viscosity: 11.47 ± 0.42 mPa·s
308.15 K, x2 = 0.8489
  viscosity: 14.69 ± 0.52 mPa·s
308.15 K, x2 = 0.94
  viscosity: 18.4 ± 0.64 mPa·s

## O=[N+]([O-])c1ccccc1 + CS(C)=O
298.15 K, x2 = 0.1
  viscosity: 1.851 ± 0.018 mPa·s
298.15 K, x2 = 0.2
  viscosity: 1.877 ± 0.018 mPa·s
298.15 K, x2 = 0.3
  viscosity: 1.903 ± 0.018 mPa·s
298.15 K, x2 = 0.4
  viscosity: 1.927 ± 0.018 mPa·s
298.15 K, x2 = 0.5
  viscosity: 1.946 ± 0.018 mPa·s
298.15 K, x2 = 0.6
  viscosity: 1.962 ± 0.019 mPa·s
298.15 K, x2 = 0.7
  viscosity: 1.975 ± 0.019 mPa·s
298.15 K, x2 = 0.8
  viscosity: 1.985 ± 0.019 mPa·s
298.15 K, x2 = 0.9
  viscosity: 1.993 ± 0.019 mPa·s
308.15 K, x2 = 0.1
  viscosity: 1.569 ± 0.015 mPa·s
308.15 K, x2 = 0.2
  viscosity: 1.586 ± 0.015 mPa·s
308.15 K, x2 = 0.3
  viscosity: 1.605 ± 0.016 mPa·s
308.15 K, x2 = 0.4
  viscosity: 1.623 ± 0.016 mPa·s
308.15 K, x2 = 0.5
  viscosity: 1.639 ± 0.016 mPa·s
308.15 K, x2 = 0.6
  viscosity: 1.653 ± 0.016 mPa·s
308.15 K, x2 = 0.7
  viscosity: 1.662 ± 0.016 mPa·s
308.15 K, x2 = 0.8
  viscosity: 1.665 ± 0.016 mPa·s
308.15 K, x2 = 0.9
  viscosity: 1.664 ± 0.016 mPa·s
318.15 K, x2 = 0.1
  viscosity: 1.333 ± 0.013 mPa·s
318.15 K, x2 = 0.2
  viscosity: 1.349 ± 0.013 mPa·s
318.15 K, x2 = 0.3
  viscosity: 1.353 ± 0.013 mPa·s
318.15 K, x2 = 0.4
  viscosity: 1.377 ± 0.014 mPa·s
318.15 K, x2 = 0.5
  viscosity: 1.388 ± 0.014 mPa·s
318.15 K, x2 = 0.6
  viscosity: 1.396 ± 0.014 mPa·s
318.15 K, x2 = 0.7
  viscosity: 1.402 ± 0.014 mPa·s
318.15 K, x2 = 0.8
  viscosity: 1.403 ± 0.014 mPa·s
318.15 K, x2 = 0.9
  viscosity: 1.4 ± 0.014 mPa·s
